Patent publication US20220256900A1, “COMPOSITIONS WITH SUGAR LIKE CHARACTERISTICS” (CORN PRODUCTS DEVELOPMENT, INC., priority 2019, published 2022)

Legend:
Type in all cases: in vivo
[1] = test system: 3 tasters; experiment: Taste profile of Test Compound Na Salt with Reb A in pH 3.0 buffer (Example 5)
Procedure: (§1) The taste profile of the Test Compound Sweetener (Na Salt of the compound) was evaluated in combination with sweeteners—namely Rebaudioside A (Reb A). Enliten® 300000 (Reb A 95) was used in combination with the Test Compound. These samples were evaluated in pH 3.0 buffer by 3 tasters. Samples were tasted in a blinded fashion using sip and spit methodology. The focus of the evaluation was to obtain an indication of the sweetness profile of the blends when compared to sucrose. Materials and Methods. Potassium sorbate was dissolved into water. The remaining ingredients were added and mixed until fully dissolved. The pH of each sample was recorded and the samples tasted using sip and spit method. The samples were then compared to each other.

[2] = test system: trained descriptive analysis (DA) panel; experiment: Concentration-response testing of the Test Compound vs sucrose, sweetness intensity on gLMS; settings: in water at room temperature; tested range 0% to 0.2% (2000 ppm)
Procedure: A concentration-response (CR) testing of the Test Compound was conducted using a trained descriptive analysis (DA) panel to compare the Test Compound in an aqueous matrix to sucrose. The concentration-response curve for the natural sweetener (Test Compound) was determined using a general Labeled Magnitude Scale (gLMS). Trained panelists were asked to rate the sweetness intensity of eight (8) concentrations of sweetener and sucrose, in water at room temperature (RT). […] This relationship was established using a dose response model (Equation 2: R=Rmin+(C^Hillslope)*(Rmax−Rmin)/(C^HillSlope+EC50^HillSlope) for Sucrose and the Test Compound Sweetener. Study design and Test Samples: A trained panel of 10-12 descriptive analysis panelists participated in the experiment. All participants underwent training, during which panelists familiarized themselves with rating the sweetness intensity on the gLMS scale. The scale is depicted in FIG. 4 as a vertical line marked with anchors describing different intensities. The panelists were instructed to rate the perceived sweetness intensity for each sample by marking a line on the scale. The order of samples was randomized and blinded using the William's Latin Square design. The order of sample presentation within each sweetener set was also randomized. All samples were evaluated using a sip and spit protocol.

[3] = test system: trained descriptive analysis (DA) panel; experiment: Sensory evaluation of Test Compound/Reb M blends (sweetness quality and off-taste profile), 15 cm scale; settings: RO water, samples target 10 Brix sucrose, 1000 ppm Test Comp, 600 ppm Reb M; for Bitter Aftertaste (1 min) / Sweet Aftertaste (1 min): 1 minute after expectoration; for Bitter Aftertaste (3 min) / Sweet Aftertaste (3 min): 3 minutes after expectoration; for Astringent / Bitter / Licorice / Metallic / Sweet AT (Appearance Time) / Sweet Intensity (ns) / Thickness: room temperature, LSD means
Procedure: Sensory results for sweetener blends with Reb M were evaluated using a trained descriptive analysis (DA) panel. Five blend samples were tested in this panel; wherein each sample was designed to target a sweetness equivalence of 10 Brix Sucrose.
Study Designs and Test Samples. A validated and trained panel of 10-12 descriptive analysis panelists participated in these experiments.
During the test sessions, panelists rated the intensity of each attribute on a 15 cm scale. Five test samples were tested for each attribute, in triplicate. The order of samples was randomized and blinded using the Williams Latin Square design. All samples were prepared in reverse osmosis (RO) water and served at room temperature and evaluated using a sip and spit protocol.
Each of the five samples were evaluated for sensory attributes corresponding to sweetness quality and off-taste profile. Attributes of sweetness intensity, sweetness appearance time, sweetness aftertaste and thickness were evaluated as part of the sweetness quality profiling. Specifically, for sweetness aftertaste two time points were evaluated; 1 minute and 3 minutes, after expectoration. The sweetness aftertaste corresponds to the sweetness linger characteristic, often common to high potency sweeteners.
Off-Taste Profile. All 5 blend samples were also evaluated for attributes of bitter, astringent, metallic, licorice, and bitter aftertaste, as part of the off-taste profiling. Specifically, for bitter aftertaste two time points were evaluated; 1 minute and 3 minutes, after expectoration. When referring to ‘bitter’ tastes herein it refers to a sample that confers a bitter taste, activates or that can be detected by a bitter taste receptor and/or confers the perception of a bitter taste in a subject. Table 5 lists the LSD Means Differences for the off-taste evaluation across the 5 blend samples with Reb M.

[4] = test system: 3 tasters; experiment: Taste profile of Test Compound Na Salt with HFCS-55 in pH 3.0 buffer (Example 4); settings: Test Compound (Na Salt) 1100 ppm
Procedure: as §1, with “High Fructose Corn Syrup (HFCS-55).” for “Rebaudioside A (Reb A). Enliten® 300000 (Reb A 95) was used in combination with the Test Compound.”

[5] = test system: 3 tasters; experiment: Taste profile of Test Compound Na Salt with sucralose in pH 3.0 buffer (Example 7)
Procedure: The taste profile of the Test Compound Sweetener (Na Salt of the compound) was evaluated in combination with sweeteners—namely sucralose. These samples were evaluated in pH 3.0 buffer at 10 SE by 3 tasters. Samples were tasted in a blinded fashion using sip and spit methodology. The focus of the evaluation was to obtain an indication of the sweetness profile of the blends when compared to sucrose.
Materials and Methods. Potassium sorbate was dissolved into water. The remaining ingredients were added and mixed until fully dissolved. The samples were tasted using sip and spit method. The samples were then compared to each other and the HFCS-55 sweetness equivalence target (10 SE).

[6] = test system: trained descriptive analysis (DA) panel; experiment: Sensory evaluation of Test Compound/Reb M blends (sweetness quality and off-taste profile), 15 cm scale; settings: in water solution
[7] = 10 SE target, Test Compound Na Salt 1100 ppm, blend 550 ppm + 85 ppm Sucralose, Sucralose 170 ppm

| Structure (SMILES) | Bitter Aftertaste (1 min) [3] | Sweet Aftertaste (1 min) [3] | Bitter Aftertaste (3 min) [3] | Sweet Aftertaste (3 min) [3] | Astringent [3] | Bitter [3] | Licorice [3] | Metallic [3] | Sweet AT (Appearance Time) [3] | Sweet Intensity (ns) [3] | Thickness [3] | further results |
| --- | --- | --- | --- | --- | --- | --- | --- | --- | --- | --- | --- | --- |
| C=C1C[C@@]23CC[C@H]4[C@@](C)(CCC[C@@]4(C)C(=O)O[C@@H]4O[C@H](CO)[C@@H](O)[C@H](O)[C@H]4O)[C@@H]2CC[C@]1(O[C@@H]1O[C@H](CO)[C@@H](O)[C@H](O[C@@H]2O[C@H](CO)[C@@H](O)[C@H](O)[C@H]2O)[C@H]1O[C@@H]1O[C@H](CO)[C@@H](O)[C@H](O)[C@H]1O)C3 [Reb A, Rebaudioside A] |  |  |  |  |  |  |  |  |  |  |  | sweetness and taste ([1]; 8SE target, Test Compound Na Salt 880 ppm, blend 440 ppm + 275 ppm Reb A, Reb A 550 ppm): much less sweet than 8SE; onset, decay and off notes ([1]; Test Compound Na Salt 880 ppm, blend 440 ppm + 275 ppm Reb A, Reb A 550 ppm): plastic/floral/metallic taste to it with a bitter and astringent linger |
| Cc1ccc2[nH]cc(C[C@@H](N)C(=O)O)c2c1 [Compound 5, (R)-2-amino-3-(5-methyl-1H-indol-3-yl)propanoic acid] | 0.2 | 3.1 | 0.1 | 0.2 | 1.7 | 1.5 | 1.6 | 1.1 | 4.2 | 10.0 | 6.7 | concentration-response curve (sweetness intensity, gLMS) [2]: linear relationship; mouthfeel ([4]; blend 550 ppm + 6.49% HFCS-55): lower in mouthfeel; sweetness and taste ([4]; blend 550 ppm + 6.49% HFCS-55, HFCS-55 12.987%): fairly clean in taste and provides good upfront sweetness; adaptation ([1]; in combination with Reb A): helped reduce the adaptation commonly with Reb A; adaptation ([5]; in combination with sucralose): helped reduce the adaptation commonly with sucralose; off-taste of the sweetener by itself [6]: minimal bitterness, astringency and bitter linger |
| C=C1C[C@@]23CC[C@H]4[C@@](C)(CCC[C@@]4(C)C(=O)O[C@@H]4O[C@H](CO)[C@@H](O)[C@H](O[C@@H]5O[C@H](CO)[C@@H](O)[C@H](O)[C@H]5O)[C@H]4O[C@@H]4O[C@H](CO)[C@@H](O)[C@H](O)[C@H]4O)[C@@H]2CC[C@]1(O[C@@H]1O[C@H](CO)[C@@H](O)[C@H](O[C@@H]2O[C@H](CO)[C@@H](O)[C@H](O)[C@H]2O)[C@H]1O[C@@H]1O[C@H](CO)[C@@H](O)[C@H](O)[C@H]1O)C3 [Reb M, Rebaudioside M, reference compound] | 1.6 | 5.1 | 0.9 | 1.8 | 3.1 | 4.0 | 3.4 | 1.7 | 6.8 | 10.0 | 3.5 |  |
| OC[C@H]1O[C@H](O[C@]2(CCl)O[C@H](CCl)[C@@H](O)[C@@H]2O)[C@H](O)[C@@H](O)[C@H]1Cl [Sucralose, sucralose] |  |  |  |  |  |  |  |  |  |  |  | mouthfeel and aftertaste/linger [5, 7]: Significant aftertaste/linger; sweetness vs HFCS-55 target [5, 7]: less sweet than HFCS (LOSE) with a delayed sweetness |
